Experiment: Measurement of log P values by HPLC on reversed phase columns (methods [a] pH 2.3, [b] pH 2.7, [c] pH 7.8)
Format: physicochemical
In short: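 Determined per EEC Directive 79/831 Annex V.A8 by reversed-phase HPLC, 10-95% acetonitrile gradient: [a] pH 2.3, 0.1% phosphoric acid; [b] LC-MS, pH 2.7, 0.1% formic acid; [c] LC-MS, pH 7.8, 0.001 molar ammonium hydrogen carbonate. Calibrated with C3-C16 alkan-2-ones by retention-time interpolation.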

[1] = method [b], HPLC reversed phase, pH 2.7
[2] = method [c], HPLC reversed phase, pH 7.8
[3] = HPLC on reversed phase columns, method [b], pH 2.7
[4] = HPLC reversed phase, method [b] (pH 2.7)
[5] = HPLC on reversed phase column, method [b], pH 2.7
[6] = HPLC reversed phase, method [c] pH 7.8

O=C(NC1CC1c1ccc(Cl)cc1Cl)c1ccccc1Cl (stereo not shown) [Example 206]
logP [1]: 3.57^[b]
logP [2]: 3.47^[c];

O=C(N[C@@H]1CC[C@@H]1c1ccc(Cl)cc1C(F)(F)F)c1cccnc1Cl [Example 739]
chromatographic logP (reversed phase HPLC columns, pH 2.7, HPLC on reversed phase columns, method [b] (pH 2.7), read-out: logP): 3.09

O=C(NC1CC1c1ccc(Br)cc1)c1cccnc1Cl (stereo not shown) [Example 35]
logP [3]: 2.34^[b]

COc1cscc1C(=O)N[C@@H]1CCC[C@@H]1c1ccc(F)c(F)c1 (relative stereo) [Example 78]
logP [3]: 3.29^[b]

O=C(NC1CCCCC1c1ccccc1C(F)(F)F)c1ccccc1Cl (stereo not shown) [Example 388]
logP [4]: 4.02^[b]

CCOc1nn(C)cc1C(=O)N[C@@H]1CCC[C@H]1c1ccc(F)c(F)c1 (relative stereo) [Example 127]
logP [1]: 3.13^[b]

O=C(NC1CCC1c1ccccc1Cl)c1ncc(C(F)(F)F)cc1Cl (stereo not shown) [Example 237]
logP [1]: 3.96^[b]

Cc1nn(C)c(F)c1C(=O)N(C1CC1)C1CCCCC1c1ccccc1Cl (stereo not shown) [Example 154]
logP [1]: 3.94^[b]

O=C(NC1CCCCC1c1ccc(Cl)cc1)c1c(F)cccc1F (stereo not shown) [Example 369]
logP [4]: 3.50^[b]

O=C(N[C@@H]1CC[C@@H]1c1ccc(Cl)cc1C(F)(F)F)c1ccc(Cl)cc1Cl (relative stereo) [Example 705]
logP [5]: 4.27^[b]

Cc1nc(C(F)(F)F)c(C(=O)N[C@@H]2CCC[C@@H]2c2ccc(OC(C)C)cc2)s1 (relative stereo) [Example 342]
logP [4]: 3.80^[b]
logP [6]: 3.71^[c];

O=C(NC1CC1c1ccc(Cl)cc1Cl)c1ccccc1Br (stereo not shown) [Example 207]
logP [1]: 3.58^[b]
logP [2]: 3.52^[c];

O=C(N[C@@H]1CC[C@@H]1c1ccc(Cl)cc1C(F)(F)F)c1ccccc1[N+](=O)[O-] (relative stereo) [Example 713]
logP [5]: 3.36^[b]

Cc1nn(C)cc1C(=O)NC1CCCC1c1ccc(Cl)cc1 (stereo not shown) [Example 277]
logP [4]: 2.31^[b]

O=C(NC1CC1c1ccc(Cl)cc1)c1ccccc1C(F)F (stereo not shown) [Example 459]
logP [4]: 2.90^[b]
logP [6]: 2.88^[c];

O=C(NC1CC1c1ccc(Cl)cc1)c1ccccc1[N+](=O)[O-] (stereo not shown) [Example 467]
logP [4]: 2.59^[b]
logP [6]: 2.45^[c];

O=C(NC1CCCCC1c1ccccc1C(F)(F)F)c1ccccc1I (stereo not shown) [Example 373]
logP [4]: 4.22^[b]

O=C(NC1CCCC1c1ccc(Cl)cc1)c1c(F)cccc1F (stereo not shown) [Example 282]
logP [4]: 3.28^[b]

Cn1cc(C(=O)N[C@@H]2CC[C@@H]2c2ccccc2Cl)c(C(F)F)n1 (relative stereo) [Example 255]
logP [4]: 2.47^[b]

Cc1nn(C)c(Cl)c1C(=O)NC1CC1c1ccc(Cl)cc1 (stereo not shown) [Example 14]
logP [3]: 2.22^[b]

O=C(NC1CCCCC1c1ccc(Cl)cc1Cl)c1c(F)cccc1F (stereo not shown) [Example 411]
logP [4]: 4.26^[b]

O=C(NC1CCCC1c1ccccc1Cl)c1cccnc1Cl (stereo not shown) [Example 293]
logP [4]: 2.64^[b]

Cn1ncc(C(=O)N[C@@H]2C[C@@H]2c2ccc(Cl)cc2Cl)c1C(F)F (relative stereo) [Example 612]
logP [5]: 2.99^[b]
logP (HPLC on reversed phase column, method [c], pH 7.8): 2.94^[c];

N#Cc1ccccc1C(=O)N[C@@H]1CCC[C@@H]1c1ccc(F)c(F)c1 (relative stereo) [Example 73]
logP [3]: 3.04^[b]

Cc1ncc(C(=O)N[C@@H]2CCC[C@@H]2c2ccc(F)c(F)c2)s1 (relative stereo) [Example 71]
logP [3]: 2.57^[b]

O=C(NC1CCC1c1c(F)cccc1F)c1ccccc1 (stereo not shown) [Example 514]
logP [4]: 2.75^[b]

O=C(NC1CCCC1c1c(F)cccc1F)c1cccnc1Cl (stereo not shown) [Example 321]
logP [4]: 2.51^[b]

O=C(NC1CCC1c1c(F)cccc1F)c1ccc(Cl)cc1Cl (stereo not shown) [Example 441]
logP [4]: 3.49^[b]

O=C(N[C@@H]1CC[C@H]1c1ccc(Cl)cc1Cl)c1sccc1I (relative stereo) [Example 670]
logP [5]: 4.51^[b]

Cn1cc(C(=O)N(C2CC2)C2CCCCC2c2ccccc2)c(C(F)(F)F)n1 (stereo not shown) [Example 142]
logP [1]: 3.96^[b]

O=C(NC1CCCCC1c1ccccc1Cl)c1c(F)cccc1F (stereo not shown) [Example 379]
logP [4]: 3.67^[b]

O=C(NC1CCCC1c1ccccc1C(F)(F)F)c1ccccc1C(F)(F)F (stereo not shown) [Example 286]
logP [4]: 3.79^[b]

O=C(N[C@@H]1CC[C@@H]1c1ccccc1Cl)c1ccc(Cl)cc1Cl (relative stereo) [Example 249]
logP [4]: 3.65^[b]

Cc1nc(C)c(C(=O)NC2CCCC2c2ccc(Cl)cc2)s1 (stereo not shown) [Example 284]
logP [4]: 3.11^[b]
